According to patent publication US9351950B2, “Method for preventing or treating allergic disease using capsiate or salt thereof” (CATHOLIC UNIVERSITY OF KOREA INDUSTRY-ACADEMIC COOPERATION …, priority 2014, dated 2016):

Experiments:
serum IgE = assay: Serum IgE level (ELISA) in atopic dermatitis mouse model induced by DNFB; assay type: in vivo, mice
Description: (§1) DNFB was sensitized by being diluted to 0.15% with a vehicle in which acetone and olive oil are mixed in a ratio of 3:1. Atopic dermatitis was induced by treating twice with a 0.2% DNFB solution. The capsiate-treated group was coated with 1 mM capsiate dissolved in acetone, 1 hour before DNFB treatment (See FIG. 5).
IgE capture antibody was added in the plate, and allowed to stand at 4° C. overnight. The next day, the capture antibody was washed with PBS/Tween buffer, and blocking buffer was added, followed by reaction at room temperature for 1 hour. After the blocking buffer was washed out, IgE standard and mouse serum were added, followed by standing at 4° C. overnight. The next day, after washing was performed, the IgE detection antibody was added, followed by reaction at room temperature for 1 hour. After washing was again performed, Streptavidin-HRP was added, followed by a reaction at room temperature for 30 minutes. After washing was again performed, TMB as a substrate was added. Then, a stop solution was added, and the absorbance was measured using an ELISA reader.

[1] = test system: activated human mast cell line (HMC-1 cells); assay: Real-time PCR of cytokine transcripts in activated HMC-1 cells; assay type: cell-based; details: 50 μM, 37° C., 4 hours; HMC-1 cells activated with A23187 and PMA; normalized with GAPDH
Description: HMC-1 cells were grown in IMDM media supplemented with 100 U/ml of penicillin, 100 µg/ml of streptomycin, and 10% heat-inactivated FBS in an incubator containing 5% CO2 at 37° C. HMC-1 cells were activated by treatment with A23187 and PMA
In order to understand the inhibitory effect of capsiate on the increase of cytokines in activated HMC-1 cells, HMC-1 cells were treated with 50 μM of capsiate and capsaicin at 37° C. for 4 hours, respectively, and the transcript expressions of cytokines IL-6 and TNF-α were confirmed through real-time PCR. Total RNA was isolated from HMC-1 cells with RNeasy Mini kit (Quiagen, Valencia, Calif., USA) and the first strand of cDNA was synthesized using QuantTect Reverse Transcription kit (Quiagen, Germany). Real-time PCR was performed using KAPA SYBR fast qPCR kit (KAPA Blosystems, Woburn, Mass., USA). The following parameters were used for the PCR: 95° C. for 10 minutes, followed by 50 cycles of 95° C. for 20 seconds, 55° C. for 30 seconds, and 72° C. for 20 seconds. The gene expression levels were normalized with GAPDH expression level. The primer sets for IL-6 and TNF-α were purchased from QIAGEN.

[2] = test system: atopic dermatitis induced by 2,4-dinitro-1-fluorobenzene (DNFB) in mice; assay: Atopic dermatitis induced by DNFB in mice, histological staining and epidermal thickness; assay type: in vivo; details: 1 mM capsiate in acetone coated 1 hour before DNFB treatment
Description: as §1
After being cut with induced atopic dermatitis, the skin tissue was fixed in 4% formaldehyde for 24 hours, followed by washing and dehydration, and then a […] skin section was prepared using a paraffin block. The tissue section was deparaffinized with xylene, immerged in alcohol, and then stained with hematoxyline and eosin. After the staining, the tissue was observed using a phase contrast microscope. As for the dermal thickness, the dermal thicknesses at five places on the tissue image were measured, and the mean and standard deviation thereof were obtained and shown on a graph.

[3] = test system: Th2 cell differentiation, spleen; assay: Th2 cell differentiation in spleen of atopic dermatitis mouse model; assay type: in vivo, mice; details: spleen cells; intracellular staining CD4, IL-4, IL-5; dosing as in example 3-1
Description: as §1
(§2) After the spleen was taken out from mice, a single cell suspension was prepared, and then 3 μg/ml of anti-CD28 antibody was added in the plate to which anti-CD3 antibody adheres, followed by incubation for 3 days. On the third day, PMA (20 ng/ml) and ionomycin (1 μM) were added, followed by incubation for 5 hours. The cells were collected, and then subjected to intracellular staining using Cytofix/Cytoperm kit (BD bioscience) and anti-CD4 antibody, anti-IL-4 antibody, and anti-IL-5 antibody (BD bioscience). The dosing concentrations of DNFB and capsiate were the same as in example <3-1> above.

[4] = test system: Th2 cell differentiation, lymph node; assay: Th2 cell differentiation in lymph node of atopic dermatitis mouse model; assay type: in vivo, mice; details: lymph node cells; intracellular staining CD4, IL-4, IL-5; dosing as in example 3-1
Description: as §1
as §2, with “lymphocytes were” for “the spleen was”

[5] = test system: atopic dermatitis sites of mice; assay: Chemokine expression (real-time PCR) in mouse atopic dermatitis sites; assay type: in vivo; details: atopic dermatitis site, 1 mM capsiate, dosing as in example 3-1
Description: as §1
The chemokine inhibitory effect of capsiate in atopic dermatitis sites of mice was verified. The dosing concentrations of DNFB and capsiate were the same as in example <3-1> above, and the transcript expressions of chemokines CCL11, CCL17, and CCL22 were confirmed through real-time PCR. Real-time PCR conditions were established by the same method as in example <1-2> above, and the primer set was purchased from QIAGEN.

[6] = test system: activated human mast cell line (HMC-1 cells); assay: ELISA of cytokines in activated HMC-1 cells; assay type: cell-based; details: 50 μM, 37° C., 16 hours
Description: (§3) HMC-1 cells were grown in IMDM media supplemented with 100 U/ml of penicillin, 100 µg/ml of streptomycin, and 10% heat-inactivated FBS in an incubator containing 5% CO2 at 37° C. HMC-1 cells were activated by treatment with A23187 and PMA In order to understand the inhibitory effect of capsiate on the increase of cytokines in activated HMC-1 cells, HMC-1 cells were treated with 50 μM of capsiate and capsaicin at 37° C. for 16 hours, and the expression levels of cytokines IL-6 and TNF-α were confirmed through ELISA assay. Capture antibody was added in ELISA plate and incubated overnight 4° C. Next day, the capture antibody was washed with PBS/Tween buffer, and blocking buffer was added. After 1 hr incubation at room temperature, the blocking buffer was washed out and standard or sample supernatant was added. The plate was incubated overnight at 4° C. and washed out. After washing, detection antibody was added and incubated for 1 hr at room temperature, followed by washing the plate. Streptavidin-HRP was added to each well, incubated at room temperature for 30 mins, and then the plate was washed. TMB was used as a substrate. After TMB was added to the plate, stop solution was added to stop color development, and the plate was read using ELISA reader.

[7] = test system: atopic dermatitis sites of mice; assay: Cytokine expression (real-time PCR) in mouse atopic dermatitis sites; assay type: in vivo; details: atopic dermatitis site, 1 mM capsiate, dosing as in example 3-1
Description: as §1
The cytokine inhibitory effect of capsiate was verified at atopic dermatitis sites of mice. The dosing concentrations of DNFB and capsiate were the same as in example <3-1> above, and the transcript expressions of cytokines IL-4 and TSLP were confirmed through real-time PCR. Real-time PCR conditions were established by the same method as in example <1-2> above, and the primer set was purchased from QIAGEN.

[8] = test system: passive cutaneous anaphylaxis (PCA); assay: Passive cutaneous anaphylaxis (PCA): capillary vessel permeability and mouse ear thickness; assay type: in vivo
Description: The passive cutaneous anaphylaxis inhibitory effect of capsiate was verified by measuring capillary vessel permeability and mouse ear thickness. The capillary vessel permeability was verified by intravenously injecting Evan's blue, which is a blue staining agent, mixed with antigen, and quantifying the staining agent coming out from ear capillary vessels to the skin tissue. The quantification was conducted by cutting the ear tissue, putting the cut ear tissue in formamide, performing incubation at 65° C. for 16 hours, extracting Evan's blue in the ear tissue, and measuring the absorbance. The mouse ear thickness was measured using D15 ear thickness gauge.

[9] = test system: activated mouse bone marrow derived mast cells (BMMCs); assay: ELISA of cytokines in activated BMMCs; assay type: cell-based; details: 50 μM, 37° C., 16 hours
Description: (§4) Bone marrow cells were obtained from tibias and femurs of approximately 8 to 10 week old C57/BL/6 mice and cultured in RPMI 1640 media supplemented with 10% FCS, 100 U/ml of penicillin, 100 μg/ml of streptomycin in the presence of mIL-3 (10 ng/ml) and mSCF (50 ng/ml) for 6 weeks in an incubator containing 5% CO2 at 37° C. […] BMMC were activated by 1 μg/ml of anti-mouse DNP-IgE for overnight, followed by the treatment with 10 ng/ml of DNP-HSA for 6 hr to 24 hr.
as §3, with “In order” for “HMC-1 cells were grown in IMDM media supplemented with 100 U/ml of penicillin, 100 µg/ml of streptomycin, and 10% heat-inactivated FBS in an incubator containing 5% CO2 at 37° C. HMC-1 cells were activated by treatment with A23187 and PMA In order”, “in activated BMMCs, BMMCs were treated” for “in activated HMC-1 cells, HMC-1 cells were treated”, “of capsiate at 37°” for “of capsiate and capsaicin at 37°”, “Capture antibody for IL-6 or TNF-α was added” for “Capture antibody was added”, “detection antibody for IL-6 and TNF-α was added” for “detection antibody was added”

[10] = test system: BMCC induced with IgE antigen; assay: Pro-inflammatory cytokine expression (real-time PCR) in BMCC induced with IgE antigen; assay type: cell-based, mouse
Excerpt: The inflammatory cytokine expression inhibitory effect of capsiate was verified in BMCC induced with IgE antigen. The transcript expressions of cytokines IL-1β, IL-6, and TNF-α were verified through real-time PCR. Real-time PCR conditions were established by the same method as in example <1-2> above, and the primer set was purchased from QIAGEN.

[11] = test system: activated mouse bone marrow derived mast cells (BMMCs); assay: Real-time PCR of cytokine transcripts in activated BMMCs; assay type: cell-based; details: 50 μM, 37° C., 4 hours; BMMCs activated by anti-mouse DNP-IgE and DNP-HSA
Description: as §4
In order to understand the inhibitory effect of capsiate on the increase in cytokines in activated BMMCs, BMMCs were treated with 50 μM of capsiate at 37° C. for 4 hours, and the transcript expressions of cytokines IL-6 and TNF-α were confirmed through real-time PCR. Total RNAs were isolated from […] with RNeasy Mini kit (Quiagen, Valencia, Calif., USA) and the first strand of cDNA was synthesized using QuantTect Reverse Transcription kit (Quiagen, Germany). Real-time PCR was performed using KAPA SYBR fast qPCR kit (KAPA Blosystems, Woburn, Mass., USA). The following parameters were used for the PCR: 95° C. for 10 mins, followed by 50 cycles of 95° C. for 20 s, 55° C. for 30 s, and 72° C. for 20s. The gene expression levels were normalized with GAPDH expression level. The primer sets for IL-6 and TNF-α were purchased from QIAGEN.

Row | Structure (SMILES) | transcript expression of IL-6 (real-time PCR) [1] | transcript expression of TNF-α (real-time PCR) [1] | expression level of IL-6 (ELISA) [6] | expression level of TNF-α (ELISA) [6] | expression level of IL-6 (ELISA) [9] | expression level of TNF-α (ELISA) [9] | transcript expression of IL-6 (real-time PCR) [11] | transcript expression of TNF-α (real-time PCR) [11] | other results
1 | COc1cc(COC(=O)CCCC/C=C/C(C)C)ccc1O [capsiate] | significantly decreased | significantly decreased | significantly decreased | significantly decreased | significantly decreased | significantly decreased | significantly decreased | significantly decreased | level of serum IgE increased due to DNFB (serum IgE): decreased; atopic dermatitis induced by DNFB in the mice [2]: inhibited; dermal thickness increased by DNFB ([2]; H&E stained skin section): decreased; Th2 cell differentiation increased by DNFB in the spleen [3]: inhibited; Th2 cell differentiation increased by DNFB at the lymph node [4]: inhibited; transcript expression of CCL11 increased by DNFB [5]: decreased; transcript expression of CCL17 increased by DNFB [5]: decreased; transcript expression of CCL22 increased by DNFB [5]: decreased; transcript expression of IL-4 increased by DNFB [7]: decreased; transcript expression of TSLP increased by DNFB [7]: decreased; capillary vessel permeability increased by DNP IgE ([8]; Evan's blue extracted from mouse ear tissue, absorbance): inhibited; ear edema increased by DNP IgE ([8]; mouse ear thickness, ear thickness gauge): inhibited; transcript expression of IL-1β increased by IgE antigen [10]: decreased; transcript expression of IL-6 increased by IgE antigen [10]: decreased; transcript expression of TNF-α increased by IgE antigen [10]: decreased
2 | COc1cc(CNC(=O)CCCC/C=C/C(C)C)ccc1O [capsaicin, reference compound] | increased | increased | increased | increased | increased | increased | increased | increased | –
